Measured values: US20140329904A1, “INCREASING THE BIOAVAILABILITY OF HYDROXYCINNAMIC ACIDS” (NESTEC S.A., priority 2011, published 2014)
Like-named read-outs stand apart in the source and are kept apart here.

Legend:
[1] = tested on: sulfotransferases (SULTs) in human liver S9; experiment: Inhibition of hydroxycinnamic acid sulfation by flavonoids and quercetin conjugates in human liver S9; assay type: biochemical
Description: (§1) The incubation mixture, in a final volume of 50 μL, consisted of 100 mM potassium phosphate buffer (pH 7.4), with 100 μM vitamin C, 100 μM PAPS and 1 mM DTT. Human liver S9 and intestinal S9 homogenates were used at 1 mg/mL and 0.4 mg/mL, respectively. The flavonoids were added from a 5 mM stock solution dissolved in DMSO, with final DMSO concentration equalized to 0.2%. Quercetin-3-glucuronide, quercetin-7-glucuronide and quercetin-3′-sulfate were dissolved in water. After a 15 min pre-incubation period, the reaction was initiated by adding 10 μM cinnamic acids and 25 μM dihydrocinnamic acids from a 50 mM stock solution in DMSO. To inhibit hydrolysis of quercetin glucuronides, in some analyses, 5 mM saccharolactone was added. After 30 min incubation in a 37° C. water bath, the reaction was stopped by addition of 10 μL ice-cold acetonitrile containing 500 mM HCl. Controls were treated under identical condition and consisted of samples with 0.2% DMSO (final concentration) added to the buffer. Samples were stored at −70° C. until analysis.
(§2) HPLC analyses were carried out using the Agilent 1200 series liquid chromatography system. For the analysis of caffeic acid, ferulic acid, isoferulic acid, dihydroferulic acid and their conjugates, chromatography was performed with a Zorbax XDB-C18 column (4.6×150 mm, 5 μm). The mobile phase consisted of 20 mM ammonium formate, pH 2.8 (A) and methanol (B). For the analysis of caffeic acid and conjugates, samples were eluted at 1 mL/min with 5% to 25% B in 20 min, followed by 80% B in 2 min and back to 5% B for 3 min. For the analysis of ferulic and isoferulic acid and their conjugates, the gradient was from 10% to 20% B in 10 min, to 60% B in 15 min, then set at 80% B for 2 min and back to 10% B for 3 min, at 1 mL/min. Dihydroferulic acid and conjugates analysis was carried out at 1 mL/min, from 10% to 20% B in 15 min, to 60% B in 10 min, up to 80% B for 2 min and finally to 10% B for 3 min. For dihydrocaffeic acid and conjugates, the analyses were performed with a Zorbax XDB-C18 column (4.6×50 mm, 1.8 μm) with 20 mM ammonium formate, pH 4.5 (A) and methanol (B) as the mobile phase. The gradient started at 3% (B) kept for 15 min, followed by an increase to 40% B in 5 min, and then returned to 3% B for 5 min. Samples were centrifuged and 25 μL of the supernatant were injected into the column. UV-detection carried out at 280 nm and 310 nm using photodiode array detector. Caffeic, ferulic and isoferulic acid were quantified at 310 nm, dihydroferulic acid and dihydrocaffeic acid at 280 nm.

[2] = tested on: sulfotransferases (SULTs) in human intestinal S9; experiment: Inhibition of hydroxycinnamic acid sulfation by flavonoids in human intestinal S9; assay type: biochemical; details: human intestinal S9 0.4 mg/mL, 30 min, 37° C.
Description: as §1, §2

HepG2 cells = experiment: Inhibition of caffeic acid and ferulic acid sulfation in HepG2 cells; assay type: cell-based, human; details: caffeic and ferulic acids 10 μM, 4 h
Description: HepG2 cells (ATCC) were routinely cultured in 75 cm^2 cell culture flasks at 37° C. under a humidified 5% CO2/O2 atmosphere. The culture media consisted of Eagle's Minimum Essential Medium (EMEM) media supplemented with 10% fetal bovine serum (Sigma-Aldrich) and 100 U/ml penicillin-streptomycin. All experiments were performed with HepG2 cells between passages 80 to 95. For metabolic studies, HepG2 cells were seeded into 12-well plates at a cell density of 2×10^5 per well. The cell monolayers were allowed to grow over 96 h before they were used for experiments. Hydroxycinnamic acid metabolism experiments were carried out in serum-free media with 100 μM vitamin C and 1.8 mM CaCl2, adjusted to pH 6.5. Cinnamic acids (10 μM) and dihydrocinnamic acids (25 μM) were added from a 50 mM stock solution in DMSO. […] 0.4 mL of hydroxycinnamic acids, with or without the inhibitors, were added to the HepG2 cells and incubated for 4 h at 37° C. The incubation media were then collected, acidified with 1 mM vitamin C and dried under vacuum. The residue was extracted by sonication for 5 min and vortex for 1 min, first with 500 μL acetonitrile, followed by 500 μL methanol. […]
HPLC analyses were carried out using the Agilent 1200 series liquid chromatography system. […] Caffeic, ferulic and isoferulic acid were quantified at 310 nm, dihydroferulic acid and dihydrocaffeic acid at 280 nm.

[3] = human liver S9 1 mg/mL, 10 μM caffeic acid, 30 min, 37° C., flavonoids, read-out: IC50 for the inhibition of sulfation of Caffeic acid
[4] = human liver S9 1 mg/mL, 10 μM ferulic acid, 30 min, 37° C., flavonoids, read-out: IC50 for the inhibition of sulfation of Ferulic acid
[5] = 10 μM caffeic acid, read-out: IC50 for the inhibition of sulfation of Caffeic acid
[6] = 10 μM ferulic acid, read-out: IC50 for the inhibition of sulfation of Ferulic acid
[7] = liver S9, 10 μM caffeic acid, quercetin conjugates dissolved in water, read-out: IC50 for the inhibition of sulfation of Caffeic acid
[8] = liver S9, 10 μM ferulic acid, quercetin conjugates dissolved in water, read-out: IC50 for the inhibition of sulfation of Ferulic acid

Compound	IC50 [1, 3]	IC50 [1, 4]	IC50 [2, 5]	IC50 [2, 6]	IC50 [1, 7]	IC50 [1, 8]	Inhibitory effect on hydroxycinnamic acids sulfation (HepG2 cells)	Inhibition of sulfation of hydroxycinnamic acid, ranking in words ([1]; liver S9)
COc1ccc([C@@H]2CC(=O)c3c(O)cc(O)cc3O2)cc1O [Hesperetin]	4300 nM	5300 nM	3.5 µM	5.1 µM				
COc1cc(-c2oc3cc(O)cc(O)c3c(=O)c2O)ccc1O [Isorhamnetin]	2000 nM	3700 nM	4.4 µM	4.7 µM				
O=C(CCc1ccc(O)cc1)c1c(O)cc(O)cc1O [Phloretin]	990 nM	1000 nM	0.84 µM	2.3 µM				
Oc1cc(O)c2c(c1)O[C@H](c1ccc(O)c(O)c1)[C@@H](O)C2 [(+)-Catechin]	4200 nM	4400 nM	5.8 µM	7 µM				
O=C(O)[C@H]1O[C@@H](Oc2cc(O)c3c(=O)c(O)c(-c4ccc(O)c(O)c4)oc3c2)[C@H](O)[C@@H](O)[C@@H]1O [Quercetin-7-glucuronide]					9600 nM	8000 nM		
O=C(O)[C@H]1O[C@@H](Oc2c(-c3ccc(O)c(O)c3)oc3cc(O)cc(O)c3c2=O)[C@H](O)[C@@H](O)[C@@H]1O [Quercetin-3-glucuronide]					11000 nM	12000 nM		
O=c1c(O)c(-c2ccc(O)c(OS(=O)(=O)O)c2)oc2cc(O)cc(O)c12 [Quercetin-3′-sulfate]					6600 nM	6700 nM		
Oc1cc(O)c2c(c1)O[C@H](c1ccc(O)c(O)c1)[C@H](O)C2 [(−)-Epicatechin]	7400 nM	7300 nM	7.6 µM	11 µM				

The next lines start with results.

IC50 [1, 3]	IC50 [1, 4]	IC50 [2, 5]	IC50 [2, 6]	IC50 [1, 7]	IC50 [1, 8]	Compound	Inhibitory effect on hydroxycinnamic acids sulfation (HepG2 cells)	Inhibition of sulfation of hydroxycinnamic acid, ranking in words ([1]; liver S9)
590 nM	1000 nM	0.77 µM	1.5 µM			O=c1c(-c2ccc(O)cc2)coc2cc(O)cc(O)c12 [Genistein]		
650 nM	620 nM	0.72 µM	2.3 µM			O=c1c(-c2ccc(O)cc2)coc2cc(O)ccc12 [Daidzein]		
460 nM	880 nM	0.96 µM	2.3 µM			O=c1cc(-c2ccc(O)cc2)oc2cc(O)cc(O)c12 [Apigenin]		
80 nM	530 nM	1.3 µM	3 µM			O=c1cc(-c2ccc(O)c(O)c2)oc2cc(O)cc(O)c12 [Luteolin]	inhibitory effect	
920 nM	3900 nM	2.5 µM	3.8 µM			O=c1c(O)c(-c2ccc(O)cc2)oc2cc(O)cc(O)c12 [Kaempferol]		
410 nM	640 nM	4.2 µM	5.2 µM			O=c1c(O)c(-c2ccc(O)c(O)c2)oc2cc(O)cc(O)c12 [Quercetin]	inhibitory effect	most effective inhibitors
